From patent US9346754B2, “Method of treating advanced non-alcoholic steatohepatitis” (priority 2014, dated 2016)
Entries after “also recorded” stand apart in the source; their conditions may differ.

Columns and labels:
Assay type in all cases: in vivo, C57BL/6 mice
[1] = tested on: STAM Model of Advanced Non-Alcoholic Steatohepatitis; assay: Sirius red staining, percentage of fibrosis area in STAM mice; details: for Sirius red-positive area (fibrosis area): mean ± SD
Protocol: For HE staining, sections were cut from paraffin blocks of liver tissue prefixed in Bouin's solution and stained with Lillie-Mayer's Hematoxylin (Muto Pure Chemicals, Japan) and eosin solution (Wako Pure Chemical Industries). NAFLD Activity score (NAS) was calculated according to the criteria of Kleiner (Kleiner D E. et al., Hepatology, 2005; 41:1313). To visualize collagen deposition, Bouin's fixed liver sections were stained using picro-Sirius red solution (Waldeck, Germany). For quantitative analysis of fibrosis area, inflammation area, and semi-quantification of α-SMA, bright field images of Sirius red-stained, F4/80- and α-SMA-immunostained sections were captured around the central vein using a digital camera (DFC280: Leica Microsystems, Germany) at 200-fold magnification, and the positive areas in 5 fields/section were measured using ImageJ software (National Institute of Health, USA). […] P values<0.05 were considered statistically significant. […] Results were expressed as mean±SD.

TIMP-1 mRNA = assay: Liver gene expression by quantitative RT-PCR: TIMP-1; details: 10 mg/kg oral once daily, 8 to 12 weeks of age (MN-001-low; Telmisartan)
Protocol: (§1) Total RNA was extracted from liver samples using RNAiso (Takara Bio, Japan) according to the manufacturer's instructions. One μg of RNA was reverse-transcribed using a reaction mixture containing 4.4 mM MgCl2 (F. Hoffmann-La Roche, Switzerland), 40 U RNase inhibitor (Toyobo, Japan), 0.5 mM dNTP (Promega, USA), 6.28 μM random hexamer (Promega), 5× first strand buffer (Promega), 10 mM dithiothreitol (Invitrogen, USA) and 200 U MMLV-RT (Invitrogen) in a final volume of 20 μL. The reaction was carried out for 1 hour at 37° C., followed by 5 minutes at 99° C. Real-time PCR was performed using real-time PCR DICE and SYBR premix Taq (Takara Bio). To calculate the relative mRNA expression level, the expression of each gene was normalized to that of reference gene 36B4 (gene symbol: Rp1p0). Information of PCR-primer sets are described in Table 1. [table] […] P values<0.05 were considered statistically significant. […] Results were expressed as mean±SD.

[2] = Liver weight and liver-to-body weight ratio in STAM mice
Source text: Mice in all groups will be sacrificed for the following assays at 12 weeks of age. Individual liver weight will be measured, and liver-to-body weight ratio will be calculated. Liver hydroxyproline will be quantified by a hydrolysis method. Histopathological analyses of liver sections (according to routine methods) HE staining (to estimate NAFLD Activity score), Sirius-red staining (to estimate the percentage of fibrosis area). F4/80 immunostaining (to estimate the percentage of inflammation area), Alpha-SMA immunostaining (to estimate the percentage of a-SMA positive area) are performed. Gene expression assays using total RNA from the liver Real-time RT-PCR analysis will be performed for TIMP-1, Collagen Type 1, α-SMA, 5-lipoxygenase, FLAP and LTC4 synthase are also performed. Statistical tests will be performed using Bonferroni Multiple Comparison Test. P values<0.05 will be considered statistically significant. […] P values<0.05 were considered statistically significant. […] Results were expressed as mean±SD.

[3] = tested on: STAM Model of Advanced Non-Alcoholic Steatohepatitis; assay: HE staining and NAFLD Activity Score (NAS) in STAM mice; parameters: key to NAS (NAFLD Activity Score): NAS scored per Kleiner criteria (Hepatology 2005); details: for NAS (NAFLD Activity Score): mean ± SD; for Number of mice with Steatosis score 0: score 0 = <5%; for Number of mice with Lobular inflammation score 0: score 0 = No foci; for Number of mice with Steatosis score 1: score 1 = 5-33%; for Number of mice with Lobular inflammation score 1: score 1 = <2 foci/200x; for Number of mice with Hepatocyte ballooning score 1: score 1 = Few balloon cells; for Number of mice with Lobular inflammation score 2: score 2 = 2-4 foci/200x; for Number of mice with Steatosis score 2: score 2 = >33-66%; for Number of mice with Hepatocyte ballooning score 2: score 2 = Many cells/prominent ballooning
Protocol: STAM™ is a useful model for advanced non-alcoholic steatohepatitis (advanced NASH), symptoms thereof, and related liver disorders, created by the combination of chemical and dietary interventions in C57BL/6 mice. In this example, after inducing NASH, it was allowed to reach an advanced stage, and the mice were treated at 8-12 weeks. […] Vehicle, MN-001, and Telmisartan were administered by oral route in a volume of 10 mL/kg. […] For HE staining, sections were cut from paraffin blocks of liver tissue prefixed in Bouin's solution and stained with Lillie-Mayer's Hematoxylin (Muto Pure Chemicals, Japan) and eosin solution (Wako Pure Chemical Industries). NAFLD Activity score (NAS) was calculated according to the criteria of Kleiner (Kleiner D E. et al., Hepatology, 2005; 41:1313). To visualize collagen deposition, Bouin's fixed liver sections were stained using picro-Sirius red solution (Waldeck, Germany). […] P values<0.05 were considered statistically significant. […] Results were expressed as mean±SD. Ten NASH mice were orally administered vehicle supplemented with MN-001 at a dose of 10 mg/kg once daily from 8 to 12 weeks of age. Ten NASH mice were orally administered vehicle supplemented with MN-001 at a dose of 30 mg/kg once daily from 8 to 12 weeks of age. Ten NASH mice were orally administered vehicle supplemented with MN-001 at a dose of 100 mg/kg once daily from 8 to 12 weeks of age. Ten NASH mice were orally administered pure water supplemented with Telmisartan at a dose of 10 mg/kg once daily from 8 to 12 weeks of age.

Five-Lipoxygenase mRNA = assay: Liver gene expression by quantitative RT-PCR: Five-Lipoxygenase
Protocol: as §1

[4] = 10 mg/kg oral once daily, 8 to 12 weeks of age (MN-001-low; Telmisartan)
[5] = 30 mg/kg oral once daily, 8 to 12 weeks of age (MN-001-middle)
[6] = 100 mg/kg oral once daily, 8 to 12 weeks of age (MN-001-high)
[7] = 10 mg/kg oral once daily, 8 to 12 weeks of age (MN-001-low n=10; Telmisartan n=9)
[8] = 30 mg/kg oral once daily, 8 to 12 weeks of age (MN-001-middle, n=10)
[9] = 100 mg/kg oral once daily, 8 to 12 weeks of age (MN-001-high, n=10)
[10] = any doses of MN-001 (10, 30, 100 mg/kg oral once daily)
[11] = all doses of MN-001 (10, 30, 100 mg/kg oral once daily, 8 to 12 weeks of age)
[12] = high dose, 100 mg/kg oral once daily, 8 to 12 weeks of age
[13] = middle dose, 30 mg/kg oral once daily, 8 to 12 weeks of age
[14] = Telmisartan 10 mg/kg oral once daily, 8 to 12 weeks of age

CCCc1c(SCCCOc2ccc(C(C)=O)c(OCCCC(=O)O)c2CCC)ccc(C(C)=O)c1O [MN-001]
Fibrosis area compared with the Vehicle group [1, 4]: significantly decreased | Fibrosis area compared with the Vehicle group [1, 5]: tended to decrease | Fibrosis area compared with the Vehicle group [1, 6]: significantly decreased | Sirius red-positive area (fibrosis area) [1, 7]: 0.75 ± 0.40% | Sirius red-positive area (fibrosis area) [1, 8]: 0.95 ± 0.37% | Sirius red-positive area (fibrosis area) [1, 9]: 0.65 ± 0.28% | TIMP-1 mRNA expression levels compared with the Vehicle group (TIMP-1 mRNA): significantly down-regulated | Mean liver weight compared with the Vehicle group [2, 10]: no significant differences | Mean liver-to-body weight ratio compared with the Vehicle group [2, 10]: no significant differences | Hepatocellular ballooning and inflammatory cell infiltration in HE-stained liver sections [3, 11]: marked improvements | NAS compared with the Vehicle group [3, 11]: significantly decreased | Ballooning score [3, 12]: significantly reduced | NAS compared with the Vehicle group [3, 12]: significantly decreased | NAS (NAFLD Activity Score) [3, 7]: 3.6 ± 1.4 | NAS (NAFLD Activity Score) [3, 8]: 4.0 ± 0.9 | NAS (NAFLD Activity Score) [3, 9]: 3.1 ± 0.7 | Ballooning score [3, 13]: significantly reduced | NAS compared with the Vehicle group [3, 13]: significantly decreased | Number of mice with Steatosis score 0 [3, 7]: 3 | Number of mice with Lobular inflammation score 0 [3, 7]: 2 | Number of mice with Lobular inflammation score 0 [3, 8]: 1 | Number of mice with Lobular inflammation score 0 [3, 9]: 4 | Number of mice with Steatosis score 1 [3, 7]: 6 | Number of mice with Steatosis score 1 [3, 8]: 7 | Number of mice with Steatosis score 1 [3, 9]: 9 | Number of mice with Lobular inflammation score 1 [3, 7]: 2 | Number of mice with Lobular inflammation score 1 [3, 8]: 6 | Number of mice with Lobular inflammation score 1 [3, 9]: 5 | Number of mice with Hepatocyte ballooning score 1 [3, 7]: 6 | Number of mice with Hepatocyte ballooning score 1 [3, 8]: 5 | Number of mice with Hepatocyte ballooning score 1 [3, 9]: 7 | Number of mice with Lobular inflammation score 2 [3, 7]: 6 | Number of mice with Lobular inflammation score 2 [3, 8]: 3 | Number of mice with Lobular inflammation score 2 [3, 9]: 1 | Number of mice with Steatosis score 2 [3, 7]: 1 | Number of mice with Steatosis score 2 [3, 8]: 3 | Number of mice with Steatosis score 2 [3, 9]: 1 | Number of mice with Hepatocyte ballooning score 2 [3, 7]: 4 | Number of mice with Hepatocyte ballooning score 2 [3, 8]: 5 | Number of mice with Hepatocyte ballooning score 2 [3, 9]: 3 | Five-Lipoxygenase mRNA expression levels compared with the Vehicle group (Five-Lipoxygenase mRNA; [4]): no significant differences | Five-Lipoxygenase mRNA expression levels compared with the Vehicle group (Five-Lipoxygenase mRNA; [5]): no significant differences | Five-Lipoxygenase mRNA expression levels compared with the Vehicle group (Five-Lipoxygenase mRNA; [6]): tended to decrease

CCCc1nc2c(C)cc(-c3nc4ccccc4n3C)cc2n1Cc1ccc(-c2ccccc2C(=O)O)cc1 [Telmisartan, reference compound]
Fibrosis area compared with the Vehicle group [1, 4]: significantly decreased | Sirius red-positive area (fibrosis area) [1, 7]: 0.49 ± 0.19% | TIMP-1 mRNA expression levels compared with the Vehicle group (TIMP-1 mRNA): significantly down-regulated | Mean liver weight compared with the Vehicle group [2, 14]: significantly decreased; also recorded: significant decrease | Mean liver-to-body weight ratio compared with the Vehicle group [2, 14]: significant decrease | NAS compared with the Vehicle group [3, 14]: significantly decreased | NAS (NAFLD Activity Score) [3, 7]: 2.8 ± 0.8 | Number of mice with Steatosis score 0 [3, 7]: 2 | Number of mice with Lobular inflammation score 0 [3, 7]: 2 | Number of mice with Steatosis score 1 [3, 7]: 7 | Number of mice with Lobular inflammation score 1 [3, 7]: 5 | Number of mice with Hepatocyte ballooning score 1 [3, 7]: 9 | Number of mice with Lobular inflammation score 2 [3, 7]: 2 | Five-Lipoxygenase mRNA expression levels compared with the Vehicle group (Five-Lipoxygenase mRNA; [4]): tended to decrease
